This test addresses T1, α4 nAChR (Rattus norvegicus, UniProt P09483+P12390).
T1 construct: from tissue; host or cells: rat cortical brain membranes
As to the kind of experiment: Affinity at α4 nAChR by [125I]-IPH binding to rat cortical membranes. As to conditions: saturation curves fitted to a one site model. How it is done:
Assay for Affinity at an α4 nAChR Receptor by Measuring the Binding of […] Binding to Rat Cortical Membranes
A procedure modified from Martino-Barrows and Kellar (Mol Pharm (1987) 31:169-174) may be used. Rat cortical brain membranes are prepared as described in the [^125I]α-BTX binding assay, except that a 500-12000×g membrane fraction is prepared. Membranes (30-150 μg) are incubated with 30-100 pM of the epibatidine analog [^125I]-IPH ((+/−)-exo-2-(2-iodo-5-pyridyl)-7-azabicyclo-[2,2,1]heptane) together with test compound in HB for 1 hour at room temperature with gentle shaking. Membranes may be recovered as described for the [^125I]α-BTX binding assay. Non-specific binding may be determined by 100 μM carbachol. Typically specific binding is about 84%.
Analysis of Binding Data Obtained in α7 nAChR or α4 nAChR Receptor Assays
IC50 values and pseudo Hill coefficients (nH) may be calculated using the non-linear curve fitting program ALLFIT (DeLean A, Munson P J and Rodbard D (1977) Am. J. Physiol., 235:E97-E102). […] Ki values may be estimated using the general Cheng-Prusoff equation:
Ki=[IC50]/((2+ligand/KD)^n)^1/n−1)
where a value of n=1 is used whenever nH<1.5 and a value of n=2 is used when nH≧1.5. To account for variability, assays may be performed in triplicate and variability will typically be ±5%. Ki values may be determined using six to 11 drug concentrations.

T1 sequence (P12390 25-500): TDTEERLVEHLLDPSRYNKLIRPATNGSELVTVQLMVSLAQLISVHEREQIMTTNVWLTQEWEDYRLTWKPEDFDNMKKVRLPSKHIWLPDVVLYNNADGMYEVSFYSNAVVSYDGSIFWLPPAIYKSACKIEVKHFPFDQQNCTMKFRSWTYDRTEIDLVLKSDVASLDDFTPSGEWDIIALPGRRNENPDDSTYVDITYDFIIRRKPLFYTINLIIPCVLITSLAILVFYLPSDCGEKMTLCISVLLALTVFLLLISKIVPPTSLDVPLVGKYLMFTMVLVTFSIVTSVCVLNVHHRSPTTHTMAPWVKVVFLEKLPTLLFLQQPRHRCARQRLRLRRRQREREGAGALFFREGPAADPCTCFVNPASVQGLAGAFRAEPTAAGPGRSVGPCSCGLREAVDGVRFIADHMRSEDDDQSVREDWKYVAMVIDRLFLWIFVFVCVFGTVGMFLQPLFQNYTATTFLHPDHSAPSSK
T1 sequence (P09483 31-630): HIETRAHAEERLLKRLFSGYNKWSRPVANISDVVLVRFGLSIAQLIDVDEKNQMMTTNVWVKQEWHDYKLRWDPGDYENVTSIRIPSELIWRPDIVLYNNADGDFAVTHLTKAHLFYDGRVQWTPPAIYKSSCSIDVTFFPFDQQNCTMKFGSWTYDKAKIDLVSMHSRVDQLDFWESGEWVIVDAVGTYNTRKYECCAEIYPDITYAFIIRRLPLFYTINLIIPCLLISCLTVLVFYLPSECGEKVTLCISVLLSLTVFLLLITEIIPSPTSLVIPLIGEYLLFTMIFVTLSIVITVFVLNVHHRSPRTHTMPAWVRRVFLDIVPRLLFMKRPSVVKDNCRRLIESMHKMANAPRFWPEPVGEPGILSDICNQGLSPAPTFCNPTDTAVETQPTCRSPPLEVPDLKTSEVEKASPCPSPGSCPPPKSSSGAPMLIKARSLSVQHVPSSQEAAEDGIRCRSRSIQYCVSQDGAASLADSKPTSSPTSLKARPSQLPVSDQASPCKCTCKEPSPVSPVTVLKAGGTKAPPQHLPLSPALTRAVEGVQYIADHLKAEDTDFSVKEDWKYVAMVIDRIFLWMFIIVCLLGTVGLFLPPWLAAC

For orientation: Kd means the equilibrium constant for the complex coming apart. `Ic1ccc(C2CC3CCC2N3)cn1` (racemic) [[^125I]-IPH, (+/−)-exo-2-(2-iodo-5-pyridyl)-7-azabicyclo-[2,2,1]heptane] gave a Kd of 0.064 nM. In other words, the picomolar range.

The values above are taken from US20080103170A1, “Nicotinic Acetylcholine Receptor Ligands” (AstraZeneca AB, priority 2004, published 2008).
